Experimental data: the NIST ThermoML archive (doi:10.1016/j.fluid.2013.06.021)
± gives the expanded uncertainty stated by the source.

Test: xn = mol fraction of the nth substance listed
Conditions: 101 kPa, Liquid; for speed of sound: Sing-around technique in a fixed-path interferometer; for mass density: Vibrating tube method; for viscosity: Capillary tube (Ostwald / Ubbelohde) method

## CCCCOCCO [2-butoxyethan-1-ol] + CCC(C)O
303.15 K, x1 = 0.5011
  speed of sound: 1247.4 ± 0.74 m/s
  mass density: 852.78 ± 0.12 kg/m3
303.15 K, x1 = 0.6065
  speed of sound: 1257.1 ± 0.73 m/s
  mass density: 862.11 ± 0.11 kg/m3
303.15 K, x1 = 0.7054
  speed of sound: 1265.5 ± 0.72 m/s
  mass density: 870.3 ± 0.1 kg/m3
303.15 K, x1 = 0.806
  speed of sound: 1273.8 ± 0.71 m/s
  mass density: 878.16 ± 0.093 kg/m3
303.15 K, x1 = 0.8558
  speed of sound: 1277.7 ± 0.7 m/s
  mass density: 881.88 ± 0.09 kg/m3
303.15 K, x1 = 0.8999
  speed of sound: 1281.2 ± 0.7 m/s
  mass density: 885.1 ± 0.087 kg/m3
303.15 K, x1 = 0.9516
  speed of sound: 1285.1 ± 0.7 m/s
  mass density: 888.76 ± 0.085 kg/m3
303.15 K, x1 = 0.0517
  mass density: 804.88 ± 0.14 kg/m3
303.15 K, x1 = 0.1011
  mass density: 810.88 ± 0.14 kg/m3
303.15 K, x1 = 0.152
  mass density: 816.86 ± 0.13 kg/m3
303.15 K, x1 = 0.2027
  mass density: 822.62 ± 0.13 kg/m3
303.15 K, x1 = 0.2541
  mass density: 828.26 ± 0.13 kg/m3
303.15 K, x1 = 0.3092
  mass density: 834.08 ± 0.12 kg/m3
303.15 K, x1 = 0.4012
  mass density: 843.34 ± 0.12 kg/m3
308.15 K, x1 = 0.0517
  viscosity: 2.081 ± 0.12 mPa·s
  speed of sound: 1183 ± 0.79 m/s
  mass density: 800.58 ± 0.14 kg/m3
308.15 K, x1 = 0.1011
  viscosity: 2.031 ± 0.12 mPa·s
  speed of sound: 1188.7 ± 0.78 m/s
  mass density: 806.58 ± 0.14 kg/m3
308.15 K, x1 = 0.152
  viscosity: 1.994 ± 0.12 mPa·s
  speed of sound: 1194.5 ± 0.77 m/s
  mass density: 812.55 ± 0.13 kg/m3
308.15 K, x1 = 0.2027
  viscosity: 1.97 ± 0.12 mPa·s
  speed of sound: 1200 ± 0.77 m/s
  mass density: 818.33 ± 0.13 kg/m3
308.15 K, x1 = 0.2541
  viscosity: 1.944 ± 0.12 mPa·s
  speed of sound: 1205.6 ± 0.76 m/s
  mass density: 823.96 ± 0.13 kg/m3
308.15 K, x1 = 0.3092
  viscosity: 1.935 ± 0.12 mPa·s
  speed of sound: 1211.4 ± 0.75 m/s
  mass density: 829.79 ± 0.13 kg/m3
308.15 K, x1 = 0.4012
  viscosity: 1.935 ± 0.12 mPa·s
  speed of sound: 1220.6 ± 0.74 m/s
  mass density: 839.07 ± 0.12 kg/m3
308.15 K, x1 = 0.5011
  viscosity: 1.964 ± 0.12 mPa·s
  speed of sound: 1230.3 ± 0.73 m/s
  mass density: 848.49 ± 0.12 kg/m3
308.15 K, x1 = 0.6066
  viscosity: 1.998 ± 0.12 mPa·s
308.15 K, x1 = 0.7054
  viscosity: 2.064 ± 0.12 mPa·s
  speed of sound: 1248.6 ± 0.71 m/s
  mass density: 866.02 ± 0.1 kg/m3
308.15 K, x1 = 0.806
  viscosity: 2.112 ± 0.12 mPa·s
  speed of sound: 1256.7 ± 0.7 m/s
  mass density: 873.9 ± 0.094 kg/m3
308.15 K, x1 = 0.8558
  viscosity: 2.144 ± 0.12 mPa·s
  speed of sound: 1260.8 ± 0.7 m/s
  mass density: 877.63 ± 0.091 kg/m3
308.15 K, x1 = 0.8999
  viscosity: 2.172 ± 0.12 mPa·s
  speed of sound: 1264.2 ± 0.69 m/s
  mass density: 880.86 ± 0.089 kg/m3
308.15 K, x1 = 0.9516
  viscosity: 2.196 ± 0.12 mPa·s
  speed of sound: 1268.2 ± 0.69 m/s
  mass density: 884.53 ± 0.086 kg/m3
308.15 K, x1 = 0.6065
  speed of sound: 1240 ± 0.72 m/s
  mass density: 857.81 ± 0.11 kg/m3
313.15 K, x1 = 0.0517
  speed of sound: 1164.9 ± 0.78 m/s
  mass density: 796.19 ± 0.14 kg/m3
313.15 K, x1 = 0.1011
  speed of sound: 1170.6 ± 0.77 m/s
  mass density: 802.19 ± 0.14 kg/m3
313.15 K, x1 = 0.152
  speed of sound: 1176.6 ± 0.77 m/s
  mass density: 808.15 ± 0.14 kg/m3
313.15 K, x1 = 0.2027
  speed of sound: 1182.3 ± 0.76 m/s
  mass density: 813.93 ± 0.13 kg/m3
313.15 K, x1 = 0.2541
  speed of sound: 1188 ± 0.75 m/s
  mass density: 819.59 ± 0.13 kg/m3
313.15 K, x1 = 0.3092
  speed of sound: 1193.9 ± 0.75 m/s
  mass density: 825.43 ± 0.13 kg/m3
313.15 K, x1 = 0.4012
  speed of sound: 1203.5 ± 0.74 m/s
  mass density: 834.71 ± 0.12 kg/m3
313.15 K, x1 = 0.5011
  speed of sound: 1213.3 ± 0.7 m/s
  mass density: 844.14 ± 0.12 kg/m3
313.15 K, x1 = 0.6065
  speed of sound: 1223.1 ± 0.71 m/s
  mass density: 853.46 ± 0.11 kg/m3
313.15 K, x1 = 0.7054
  speed of sound: 1231.8 ± 0.7 m/s
  mass density: 861.68 ± 0.1 kg/m3
313.15 K, x1 = 0.806
  speed of sound: 1240.2 ± 0.7 m/s
  mass density: 869.59 ± 0.096 kg/m3
313.15 K, x1 = 0.8558
  speed of sound: 1244.1 ± 0.69 m/s
  mass density: 873.33 ± 0.093 kg/m3
313.15 K, x1 = 0.8999
  speed of sound: 1247.6 ± 0.69 m/s
  mass density: 876.56 ± 0.09 kg/m3
313.15 K, x1 = 0.9516
  speed of sound: 1251.6 ± 0.68 m/s
  mass density: 880.24 ± 0.088 kg/m3
